Measurements published in patent US7910723B2, “IG20 splice variants therapeutics for cancer” (The Board of Trustees of the University of Illinois, priority 2006, dated 2011).

Legend:
[1] = tested on: MADD; experiment: Phosphorylation of exogenous wtMADD in HEK293 cells (anti-phospho antibodies); format: cell-based; conditions: HEK293 transfected with wtMADD; LY 10 μM 1 h, IGF-1 150 ng/ml 20 minutes
Procedure: (A) In vitro phosphorylation of rMADD by Akt. GST-wtMADD or -MADD mutants were expressed in bacteria, purified, and then incubated with rAkt and γ[^32P] ATP. After 1 h incubation at 30° C., the products were resolved on SDS-PAGE and ^32P-labeled proteins were visualized by autoradiography. (B) MADD is labeled by [^32P]orthophosphate in vivo. HEK293 cells were transfected with wtMADD or MADD mutant constructs. Twenty-four hours after transfection cells were incubated with 0.3 mCi/ml [32P]orthophosphate for 6 h. MADD was immunoprecipitated with an anti-YFP antibody. The precipitated MADD was separated by SDS-PAGE, transferred to a nitrocellulose membrane, and subjected to autoradiography. Loaded MADD was visualized by staining the same membrane with an anti-YFP antibody. (C) HEK293 cells were transfected with cDNAs for wtMADD or MADD mutants and. 36 h later the cells were harvested for immunoblotting using the anti-phospho-S-70, -T-173 or -T-1041 antibodies. An anti-YFP antibody was used to detect exogenous MADD. (D) HEK293 cells were transfected with wtMADD and 24 hours later cells were serum starved for 20 h. Subsequently, they were treated with LY (10 μM) for 1 h and/or IGF-1 (150 ng/ml) for 20 minutes. The cell lysates were immunoblotted and probed with anti phospho-specific antibodies or an anti-YFP antibody. […]

[2] = tested on: caspase-8; experiment: TRAIL-induced DISC immunoprecipitation from HeLa cells, immunoblot; format: cell-based; conditions: 250 ng TRAIL 30 min, relative to SCR
Procedure: To more specifically analyze the DISC associated with TRAIL-bound death receptors, TRAIL-induced DISC was immunoprecipitated from HeLa cells using a biotinylated-antibody specific for TRAIL from HeLa cells that were either left untreated or treated with 250 ng of TRAIL for 30 min. Complexes were separated on 12% SDS-PAGE and subjected to immunoblotting with various antibodies that can specifically react with specific DISC components. Increased recruitment of FADD and pro-caspase-8 was observed after TRAIL treatment. […] However, increased caspase-8 activation (p43/41) was more apparent only upon MADD down-modulation.
Characterization of DISC immunoprecipitated using anti-TRAIL antibody. HeLa (2×10^7) cells transduced for 36 h were treated with 250 ng of TRAIL (Peprotech) for 30 minutes either at 4° C. (untreated) or at 37° C. (treated), collected, washed in cold PBS and lysed in 1 mL lysis buffer for 30 minutes on ice. The lysates were clarified and then normalized for protein concentration. The DISC was then immunoprecipitated overnight using 2 μg/mL of anti-TRAIL-biotinylated antibody. The biotinylated antibody was immunoprecipitated with 35 μL of 50% slurry of streptavidin agarose beads. The beads were washed three times with lysis buffer, boiled in SDS sample buffer and separated on a 12% SDS-PAGE gel for immunoblot analysis.

Compound | S70, T173 and T1041 phosphorylation levels of MADD [1] | Intermediate fragments of caspase-8 (p43/41) in TRAIL immunoprecipitates [2]
O=c1cc(N2CCOCC2)oc2c(-c3ccccc3)cccc12 [LY] | decreased | –
13L-shRNA: shRNA targeting exon 13L (IG20, MADD), 5′ CGGCGAATCTATGACAATC-3′ (SEQ ID NO: 4) | – | increased levels of intermediate fragments of caspase-8 (p43/41)
